What was measured:
Assay type in all cases: in vivo
[1] = test system: large crabgrass (Digitaria sanquinalis L.); assay: Test Example 1: foliar treatment of large crabgrass in vat, visual growth inhibition rate; conditions: foliar treatment at 7-leaf stage, 24th day after treatment
Text: (§1) When the herbicidal activity in a case where two active ingredients are combined, is larger than the simple sum of the respective herbicidal activities of the two active ingredients (the expected activity), it is called a synergistic effect. The activity expected by the combination of two active ingredients can be calculated as follows (Colby S. R., “Weed”, vol. 15, p. 20-22, 1967). E=α+β−(α×β÷100) where α: growth inhibition rate when treated with x (g/ha) of herbicide X,
(§2) β: growth inhibition rate when treated with y (g/ha) of herbicide Y,
(§3) E: growth inhibition rate expected when treated with x (g/ha) of herbicide X and y (g/ha) of herbicide Y.
(§4) That is, when the actual growth inhibition rate (measured value) is larger than the growth inhibition rate by the above calculation (calculated value), the activity by the combination can be regarded as showing a synergistic effect.
Upland field soil was put into a 1/1,000,000 ha vat, and seeds of large crabgrass (Digitaria sanquinalis L.) were sown. When the large crabgrass reached 7-leaf stage, predetermined amounts of an emulsifiable concentrate (EC formulation) containing tiafenacil prepared by a conventional method, water dispersible granules containing flazasulfuron as an active ingredient (WG formulation, tradename: SHIBAGEN DF manufactured by Ishihara Sangyo Kaisha, Ltd.), were diluted with water in an amount corresponding to 300 L/ha, and applied for foliar treatment by a small sprayer.
On the 24th day after treatment, the state of growth of the large crabgrass was visually observed to determine the growth inhibition rate in accordance with the following evaluation standard. The growth inhibition rate (%) (measured value) and the growth inhibition rate (%) (calculated value) calculated by the Colby's formula are shown in Table 1. Growth inhibition rate (%)=0 (equivalent to the non-treated area) to 100 (complete kill)

[2] = test system: common horsetail (Equisetum arvense); assay: Test Example 5: foliar treatment of common horsetail in orchard field, visual growth inhibition rate; conditions: foliar treatment at height 15 to 20 cm, 23rd day after treatment
Text: as §1, §2, §3, §4
(§5) An orchard field was compartmentalized into 0.5 square meter per test section, When common horsetail (Equisetum arvense) which naturally grew thereafter reached a height of from 15 to 20 cm, predetermined amounts of ME formulation containing tiafenacil as an active ingredient (the same as in Test Example 3) and WG formulation containing flazasulfuron as an active ingredient (the same as in Test Example 1) were diluted with water (in an amount corresponding to 300 L/ha) containing 0.5 vol % of an agricultural adjuvant (tradename: Destiny HC, manufactured by Winfield Solutions LLC.) and applied for foliar treatment by a small sprayer.
(§6) On the 23rd day after treatment, the state of growth of the common horsetail was visually observed to determine the growth inhibition rate in accordance with the same evaluation standard as in Test Example 1. The growth inhibition rate (%) (measured value) and the growth inhibition rate (%) (calculated value) calculated by the Colby's formula are shown in Table 5.

[3] = test system: large crabgrass (Digitaria sanguinalis L.); assay: Test Example 4: foliar treatment of large crabgrass in orchard field, visual growth inhibition rate; conditions: foliar treatment at height 50 to 55 cm, 23rd day after treatment
Text: as §1, §2, §3, §4
as §5, with “section.” for “section,”, “large crabgrass (Digitaria sanguinalis L.)” for “common horsetail (Equisetum arvense)”, “50” for “15”, “55” for “20”
as §6, with “[…]” for “horsetail”, “4.” for “5.”

[4] = test system: large crabgrass (Digitaria sanguinalis L.); assay: Test Example 2: soil treatment of large crabgrass in pot, visual growth inhibition rate; conditions: soil treatment day after sowing, 14th day after treatment
Text: as §1, §2, §3, §4
Upland field soil was put into a 1/500,000 ha pot, and seeds of large crabgrass (Digitaria sanguinalis L.) were sown. […]
as §6, with “14th” for “23rd”, “large crabgrass” for “common horsetail”, “2.” for “5.”

[5] = test system: common dayflower (Commelina communis L.); assay: Test Example 3: foliar treatment of common dayflower in orchard field, visual growth inhibition rate; conditions: foliar treatment at height 35 to 40 cm, 23rd day after treatment
Text: as §1, §2, §3, §4
as §5, with “section.” for “section,”, “dayflower (Commelina communis L.)” for “horsetail (Equisetum arvense)”, “35” for “15”, “40” for “20”, “a microemulsion (ME formulation)” for “ME formulation”, “prepared by a conventional method” for “as an active ingredient (the same as in Test Example 3)”
as §6, with “dayflower” for “horsetail”, “3.” for “5.”

SMILES | Growth inhibition rate (%) of large crabgrass, Measured value ([1]; dose 12.5 g/ha) [%] | Growth inhibition rate (%) of large crabgrass, Measured value ([1]; dose 25 g/ha) [%] | Growth inhibition rate (%) of common horsetail, Measured value ([2]; dose 25 g/ha) [%] | Growth inhibition rate (%) of common horsetail, Measured value ([2]; dose 50 g/ha) [%] | Growth inhibition rate (%) of common horsetail, Measured value ([2]; dose 100 g/ha) [%] | Growth inhibition rate (%) of common horsetail, Measured value ([2]; dose 150 g/ha) [%] | Growth inhibition rate (%) of large crabgrass, Measured value ([3]; dose 25 g/ha) [%] | Growth inhibition rate (%) of large crabgrass, Measured value ([3]; dose 50 g/ha) [%] | Growth inhibition rate (%) of large crabgrass, Measured value ([3]; dose 100 g/ha) [%] | Growth inhibition rate (%) of large crabgrass, Measured value ([4]; dose 50 g/ha) [%] | Growth inhibition rate (%) of common dayflower, Measured value ([5]; dose 25 g/ha) [%] | Growth inhibition rate (%) of common dayflower, Measured value ([5]; dose 50 g/ha) [%] | inhibition at 20 g/ha ([1]; Digitaria, dose 20 g/ha, read-out: Growth inhibition rate (%) of large crabgrass, Measured value) [%] | inhibition at 20 g/ha ([2]; Equisetum arvense, dose 20 g/ha, read-out: Growth inhibition rate (%) of common horsetail, Measured value) [%] | inhibition at 40 g/ha ([2]; Equisetum arvense, dose 40 g/ha, read-out: Growth inhibition rate (%) of common horsetail, Measured value) [%] | inhibition at 40 g/ha ([3]; Digitaria sanguinalis, dose 40 g/ha, read-out: Growth inhibition rate (%) of large crabgrass, Measured value) [%] | inhibition at 20 g/ha ([4]; Digitaria sanguinalis, dose 20 g/ha, read-out: Growth inhibition rate (%) of large crabgrass, Measured value) [%] | inhibition at 20 g/ha ([5]; Commelina communis, dose 20 g/ha, read-out: Growth inhibition rate (%) of common dayflower, Measured value) [%] | inhibition at 40 g/ha ([5]; Commelina communis, dose 40 g/ha, read-out: Growth inhibition rate (%) of common dayflower, Measured value) [%]
COC(=O)CCNC(=O)C(C)Sc1cc(-n2c(=O)cc(C(F)(F)F)n(C)c2=O)c(F)cc1Cl (racemic) [Tiafenacil, methyl 3-((2RS)-2-{2-chloro-4-fluoro-5-[1,2,3,6-tetrahydro-3-methyl-2,6-dioxo-4-(trifluoromethyl)pyrimidin-1(6H)-yl]phenylthio}propionamido]propionate] | 20 | 30 | 63 | 63 | 68 | 55 | 5 | 5 | 8 | 65 | 50 | 60 |  |  |  |  |  |  | 
COc1cc(OC)nc(NC(=O)NS(=O)(=O)c2ncccc2C(F)(F)F)n1 [Flazasulfuron, 1-(4,6-dimethoxypyrimidin-2-yl)-3-(3-trifluoromethyl-2-pyridylsulfonyl)urea] |  |  |  |  |  |  |  |  |  |  |  |  | 40 | 55 | 53 | 33 | 60 | 45 | 40
